# Data taken from patent US4871774A, “Medical treatment” (The Boots Company PLC, priority 1987, dated 1989).
# “And” between values parts separate entries of the source, which are not always exact repeats. Equal entries are not always repeated. Where two headings read alike, the source gives them in different places.
# Assays:
# [1] = test system: uptake of dopamine into striatal synaptosomes; experiment: In vitro inhibition of dopamine uptake (14C-dopamine, rat striatal synaptosomes); format: biochemical, rat (Sprague-Dawley); conditions: for IC50: 0.17 μM 14C-dopamine
# Method: (1) In vitro inhibition of dopamine uptake
# Male Sprague-Dawley rats (Charles River) were killed by cervical dislocation and the brains removed and placed in an ice-cold oxygenated Krebs solution containing 120 mM NaCl, 4.7 mM KCl, 2.1 mM KH2 PO4, 1.2 mM CaCl2, 0.6 mM MgSO4, 25 mM NaHCO3 and 11 mM glucose. The brains were then dissected according to the method of Glowinski and Iversen [J. Neurochem. (1966) 13 655-669] and the striata removed. The samples of striata were pooled, weighed and transferred to a glass homogenising vessel on ice, containing oxygenated 0.32M sucrose solution (20 volumes). […] The homogenate was centrifuged at 1000×g for 10 minutes at 4° C. and the supernatant containing a suspension of synaptosomes was used in the dopamine uptake inhibition tests described below. […] A solution of ^14 C-dopamine hydrochloride (Amersham International) was added (0.2 ml) to give a final concentration of 0.17 μM. The incubation was continued for a further 5 minutes before the contents of the tubes were filtered under vacuum through Whatman GF/F filters which were washed with ice-cold Krebs solution (2×5 ml). The filters were placed in scintillation vials containing 10 ml scintillation fluid (ES-299 supplied by Packard Instruments) and the radioactivity in the vials counted on a Packard 4530 scintillation counter. In each experiment there was a control tube in which no test compound was present, 3 tubes in which the compound being tested was present at one of three concentrations (100, 10 and 1 μM) and a background tube containing no test compound which was maintained at 0° C. to determine passive ^14 C-dopamine uptake. The count for each tube was registered in counts per minute (cpm) and the % inhibition of uptake (I) calculated from the formula [formula] […] The concentration which gave 50% inhibition of uptake was then calculated and is given below as the IC50 figure for each experiment.
# [2] = test system: uptake of radiolabelled dopamine into rat striatal synaptosomes; experiment: Inhibition of dopamine uptake in vitro by plasma from drug treated rats (3H-dopamine, rat striatal synaptosomes); format: biochemical, rat (CD, Sprague-Dawley); conditions: for % Inhibition of dopamine uptake in Individual Rats: hydrochloride monohydrate; for % Inhibition of dopamine uptake, Mean (±SEM): mean of 4 rats
# Method: (3) Inhibition of dopamine uptake in vitro by plasma from drug treated rats
# To obtain the synaptosomes, untreated male CD rats (Sprague-Dawley 200-250 g; Charles River) were killed by cervical dislocation, the brains removed and the striata of two or three rats dissected out and placed in ice-cold saline. The pooled tissue was homogenised in 20 volumes of ice-cold 0.32M sucrose in a glass-teflon homogeniser with 0.35 mm clearance. The homogenate was spun at 1500×g for 10 minutes in a refrigerated (4° C.) Heraeus Christ minicentrifuge. The supernatant was transferred into a polypropylene sterilin tube and stored on ice for as short a time as possible prior to use in the radiolabelled dopamine uptake assay.
# Control rats were orally administered distilled water. After one hour the rats were killed by CO2 inhalation overdose, the chest cavity opened and blood immediately removed from the heart and mixed with an anticoagulant solution.
# The rat blood/anticoagulant mixture was spun at 5750×g for 20 minutes in a Heraeus Christ minicentrifuge at room temperature. The plasma was removed and kept at room temperature for as short a time as possible before analysis in the radiolabelled dopamine uptake assay. The fresh plasma samples from the rat study were initially maintained at 37° C. for 10-15 minutes before starting the assay. 300 μl of each plasma sample was added to six 5 ml polypropylene tubes already containing 50 μl of saline at room temperature. Four of these tubes were incubated at 37° C. to assess active radiolabelled dopamine uptake. The other two tubes were immediately cooled to c.3° C. and maintained at this temperature to account for passive radiolabelled dopamine uptake.
# (a) Active uptake of radiolabelled dopamine
# To each tube at 37° C. was added 100 μl of fresh striatal synaptosomes, prepared as above. These tubes were then agitated in the water bath at 37° C. for 5 minutes prior to the addition of 50 μl ice-cold ^3 H-dopamine solution (final concentration 1×10^-7 M) (Amersham International). The reaction was stopped after a further 5 minutes of agitation and incubation at 37° C. by removing the tubes from the water bath and immediately adding 4 ml of ice-cold saline. The contents of the tube were then rapidly filtered over Whatman glass fibre (GF/F) filters supported on a Millipore 1225 manifold linked to an Edwards 2-stage vacuum pump. The tubes were rinsed with 2×4 ml of ice-cold saline and this was also rapidly filtered. Finally, each manifold well was washed with 4 ml of ice-cold saline.
# (b) Passive uptake of radiolabelled dopamine
# To the two tubes maintained at c.3° C. was added 100 μl of fresh striatal synaptosomes followed by 50 μl of ice-cold ^3 H-dopamine solution (final concentration 1×10^-7 M). The "reaction" in these tubes was terminated by the addition of 4 ml ice-cold saline and the samples were then rapidly filtered and washed as described in (a) above.
# All filters were placed into glass vials and 10 ml of Packard ES-299 scintillation fluid added. Filters were allowed to solubilise for at least 1 hour before the radioactivity accumulated was assayed by liquid scintillation counting.
# (c) Calculation of percentage inhibition of ^3 H-dopamine uptake
# The amount of passive uptake of ^3 H-dopamine at c.3° C. (measured in cpm) was subtracted from the amount of active ^3 H-dopamine uptake at 37° C. (measured in cpm) to derive net ^3 H-dopamine uptake. The resulting value was then expressed as a percentage (X) of the net ^3 H-dopamine uptake recorded for control plasma. The latter plasma samples were obtained from distilled water-treated control rats. The percentage inhibition value (X) was calculated using the following formula: [formula]
# Mean [±1 standard error of the mean (SEM)] percentage inhibition was then determined for each dose.
# plasma dopamine level = experiment: Dopamine level in the plasma of human subjects; format: in vivo; conditions: for Dopamine levels: human plasma, 2 h after administration
# Excerpt: The mean value of domamine in picograms/ml is set out below at days 1, 4 and 7. Eight human subjects who were given placebo tablets provides plasma samples from which the mean control dopamine levels given below were obtained.
# [3] = plasma 1 h after 100 mg/kg oral
smiles,measurement,setting,value
"CC(C)CC(N(C)C)C1(c2ccc(Cl)cc2)CCC1.Cl.O (stereo not shown) [N,N-dimethyl-1-[1-(4-chlorophenyl)cyclobutyl]-3-methylbutylamine hydrochloride monohydrate]",% Inhibition of uptake,"[1]; 1 μM, Ex.1",31%
same,% Inhibition of uptake,"[1]; 1 μM, Ex.2",4%
same,% Inhibition of uptake,"[1]; 1 μM, Ex.3",12%
same,% Inhibition of uptake,"[1]; 10 μM, Ex.1",70%
same,% Inhibition of uptake,"[1]; 10 μM, Ex.2",35%
same,% Inhibition of uptake,"[1]; 10 μM, Ex.3",48%
same,% Inhibition of uptake,"[1]; 100 μM, Ex.1",96%
same,% Inhibition of uptake,"[1]; 100 μM, Ex.2",81%
same,% Inhibition of uptake,"[1]; 100 μM, Ex.3",86%
same,inhibition of 14C-dopamine uptake (in words),"[1]; 100, 10 and 1 μM",inhibited ^14 C-dopamine uptake in a concentration-dependent manner
same,IC50,"[1]; Ex.1, 37° C., read-out: IC50",3.3 µM
same,IC50,"[1]; Ex.2, 37° C., read-out: IC50",18 µM
same,IC50,"[1]; Ex.3, 37° C., read-out: IC50",11 µM
same,IC50,"[1]; mean of three replicate experiments, read-out: mean (±SEM) IC50 value for inhibition of dopamine uptake",11 ± 4.2 µM
same,% Inhibition of dopamine uptake in Individual Rats,[2]; plasma 1 h after 10 mg/kg oral,33% and 23% and 13% and 17%
same,"% Inhibition of dopamine uptake, Mean (±SEM)",[2]; plasma 1 h after 10 mg/kg oral,22.8 ± 5.5%
same,% Inhibition of dopamine uptake in Individual Rats,[2]; plasma 1 h after 30 mg/kg oral,54% and 35% and 49% and 42%
same,"% Inhibition of dopamine uptake, Mean (±SEM)",[2]; plasma 1 h after 30 mg/kg oral,45.0 ± 4.1%
same,% Inhibition of dopamine uptake in Individual Rats,[2]; [3],53% and 59% and 67% and 55%
same,"% Inhibition of dopamine uptake, Mean (±SEM)",[2]; [3],58.5 ± 3.1%
same,inhibition of radiolabelled dopamine uptake (in words),"[2]; plasma from rats, 10, 30 or 100 mg/kg oral",dose-dependent inhibition of radiolabelled dopamine uptake
same,Dopamine levels,"plasma dopamine level; Day 1, 30 mg per day, control 122",254 pg/mL
same,Dopamine levels,"plasma dopamine level; Day 4, 30 mg per day, control 110",294 pg/mL
same,Dopamine levels,"plasma dopamine level; Day 7, 30 mg per day, control 118",219 pg/mL
same,plasma dopamine levels (in words),"plasma dopamine level; human subjects, 30 mg dose",plasma dopamine levels had increased
